Assay results reported in a compilation of properties of binary mixtures (doi:10.1021/je401124t).

Test: xn = mol fraction of the nth substance listed
Settings: 101 kPa

CC(C)O + COP(=O)([O-])OC.Cn1cc[n+](C)c1
x1 = 1
Settings | viscosity [mPa·s]
293.15 K | 2.439
298.15 K | 2.134
303.15 K | 1.845
308.15 K | 1.603
313.15 K | 1.4
318.15 K | 1.228
323.15 K | 1.083

COP(=O)([O-])OC.Cn1cc[n+](C)c1 + CO
viscosity [mPa·s]
Settings | x2 = 0 | x2 = 0.1054 | x2 = 0.2009 | x2 = 0.2977 | x2 = 0.3984 | x2 = 0.5028 | x2 = 0.6018 | x2 = 0.7027 | x2 = 0.8002 | x2 = 0.8998
293.15 K | 416 | 278 | 174.8 | 111.5 | 68 | 36.25 | – | 10.21 | 4.9 | –
298.15 K | – | 201.1 | 121.9 | – | – | 29.9 | 17.07 | 9.02 | 4.419 | 1.776
303.15 K | 210 | 149.7 | – | 67.9 | 43.95 | – | 14.7 | 8.01 | 4.006 | 1.642
308.15 K | 155.6 | 114.3 | – | 54.4 | 36.27 | – | 12.81 | 7.16 | 3.65 | 1.523
313.15 K | 119.2 | 89.4 | 60.5 | 44.4 | 30.38 | 18.06 | 11.25 | 6.44 | 3.336 | 1.416
318.15 K | 92.8 | – | 49.2 | 36.86 | 25.8 | 15.62 | 9.96 | – | 3.061 | 1.322
323.15 K | 74.2 | 58.3 | 40.66 | – | 22.16 | – | 8.88 | 5.3 | 2.82 | 1.243

COP(=O)([O-])OC.Cn1cc[n+](C)c1 + CCO
viscosity [mPa·s]
Settings | x2 = 0 | x2 = 0.0999 | x2 = 0.2028 | x2 = 0.3009 | x2 = 0.4074 | x2 = 0.5028 | x2 = 0.6 | x2 = 0.6992 | x2 = 0.7999 | x2 = 0.9
293.15 K | 416 | 339 | 246 | 134.3 | 77.7 | – | – | 13.76 | – | –
298.15 K | 291 | 238 | 182.5 | 98.7 | – | 30.76 | – | 11.97 | 5.6 | 2.824
303.15 K | 210 | – | 138.5 | 78.5 | 48.7 | 25.78 | 18.08 | 10.5 | – | 2.567
308.15 K | 155.6 | 130.7 | 106.8 | 62.9 | 39.62 | – | 15.59 | – | 4.509 | 2.341
313.15 K | 119.2 | 100.8 | 84 | 51 | 32.73 | 18.94 | 13.59 | 8.27 | 4.077 | 2.143
318.15 K | – | 79.1 | 67 | 41.98 | 27.44 | 16.42 | 11.88 | 7.41 | – | 1.97
323.15 K | 74.2 | – | 54.4 | 35.06 | 23.3 | 14.35 | 10.51 | 6.68 | 3.378 | –

CCCO + COP(=O)([O-])OC.Cn1cc[n+](C)c1
x1 = 1
Settings | viscosity [mPa·s]
293.15 K | 2.188
298.15 K | 1.974
303.15 K | 1.761
308.15 K | 1.575
313.15 K | 1.416
318.15 K | 1.273
323.15 K | 1.15
